# Measurements: patent US4720497A, “6-purinyl N-/2-chloroethyl/carbamate and thiocarbamate and process for the preparation thereof” (SPOFA, Spojene Podniky pro Zdravotnickou Vyrobu, priority 1984, dated 1988)
# Read-outs that look alike come from different tables or passages of the source.
# Key:
# Ehrlich tumor (STE) = test: Antitumor activity against implanted Ehrlich tumor (STE) in mice, tumor weight (Example 4); type: in vivo, female mice H; details: mice H
# Source text: (§1) The antineoplastic activity of the compounds of the invention has been investigated by testing the compounds of the chemical group "in vivo" against experimental rodent tumors such as Crocker's sarcoma (S180), solid-type Ehrlich carcinoma (STE), kreb's ascites tumor (Kr2), all maintained in mice H, Gardner lymphosarcoma (LsG, C3H mice), P388 and L1210 leukemias (DBA2 mice), Zajdela ascites hapatoma (ZAH, Wistar rats), Yoshida ascites reticulosarcoma (Y, Wistar rats) and B16 melanoma (C57B16 mice) in experiments according to Jelinek, V. (Neoplasma 12, 469 (1969); ibid. 7, 146 (1960) and "in vitro" experiments using radioactive precursors of nucleic acids and proteins according to Miko, M. et al. (Cancer Res. 39, 4242 (1979); Neoplasma 26, 449 (1979); ibid. 16, 161--1969) with minor modifications (Mattern J.: Studies on the Drug Sensitivity of Short Term Cultured Tumor Cell Suspensions. In "Human Tumors in Short Term Culture" (Dendy, P. P. ed.), p. 301, Academic Press 1976). Therapeutic synergism has been studied by the method of Carter, W. H. et al. (cf. Cancer Res. 42, 2963--1982).
# Sixty female mice H weighing approximately 20 g are divided into three groups: one control group and two experimental groups of 20 animals each. A lethal dose of the Crocker tumor (S180) homogenate is implanted subcutaneously in all the animals. The experimental groups are treated with the substance Ia in water suspension. The suspension contains the substance Ia in such an amount that a dose 0.4 or 0.2 ml of the suspension p.o. is equal to a dose 200 or 100 mg Ia/kg. This dose is administered to the experimental animals once a day, eight times altogether, starting on the fifth day after the implantation. On the fourteenth day after the implantation, a half of the animals in each group is sacrificed in ether anaesthesia, and tumors are removed and weighed. The remaining animals are left to monitor the time of death.
# Zajdel ascitic hepatoma [1] = test: Survival of rats with implanted Zajdel ascitic hepatoma (Example 5); type: in vivo, female Wistar rats; details: Wistar rats
# Source text: as §1, with “2963--1982). […]” for “2963--1982).”
# Yoshida tumor [2] = test: Survival of rats with implanted Yoshida tumor (Example 6); type: in vivo, female Wistar rats; details: Wistar rats
# Source text: as §1
# (§2) Additionally, the compounds of the present invention are useful in increasing survival time of the suitable biological subjects, namely mice and rats bearing tumors STE, ZAH and/or Y: because of the lethal nature of the test system employed, the antitumor effect of the compounds is illustrated by a side comparison of the survival time of treated animals (survival for a longer time) with the untreated control groups of animals (cf. Examples 5, 6, and 7). In these typical experiments, ten animals are in the experimental groups, and the treated groups of animals survive for a longer time than the untreated controls.
# (§3) Fifty infantile female Wistar rats weighing approximately 60 g are divided into five groups: one control and four experimental ones, 10 animals each. A lethal dose of the tumor ascites from Zajdel ascitic hepatoma is implanted intraperitoneally in all the animals. The experimental groups are treated with the substance Ia in water suspension. The suspension contains the substance Ia in such an amount that a dose of 0.4 or 0.2 ml of the suspension p.o. is equal to a dose of 200 or 100 mg Ia/Kg. This dose is applied to the experimental animals once a day, five times altogether, starting on the first day after the implantation.
# Yoshida tumor [3] = test: Survival of rats with implanted Yoshida tumor (Example 7); type: in vivo, female Wistar rats; details: Wistar rats
# Source text: as §1, §2, §3
# Zajdel ascitic hepatoma [4] = test: Survival of rats with implanted Zajdel ascitic hepatoma, comparison with 6-mercaptopurine (Example 8); type: in vivo, female Wistar rats; details: for Period of survival (% of control): Wistar rats
# Source text: as §1, §3
# Yoshida ascitic sarcoma = test: Therapeutic synergism with Benfluron, survival of rats with Yoshida ascitic sarcoma (Example 9); type: in vivo, female Wistar rats; details: for Average period of survival (days): geometric average (fiducial limits P=0.95)
# Source text: as §1
# One hundred and twenty seven infantile female Wistar rats weighing 50-60 g are divided into sixteen groups: one control group of 25 animals and fifteen experimental groups of 6 to 7 animals. A lethal dose of the tumor ascites from Yoshida ascitic sarcoma is implanted intraperitoneally in all the animals. The experimental groups are treated with the substance Ia in water suspension, water solution of a cytostatic Benfluron (CAS 80427-58-3), or a combination of both the substances. The suspension or solution contains the substances in such a concentration that doses of 0.4 or 0.2 and 0.1 ml of the suspension/solution p.o. are equal to doses of 200 or 100 and 50 mg Ia/kg or to doses of 160, 80 or 40 mg of Benfluron/kg. Doses of the substance Ia are administered to the experimental animals once a day, four times altogether, starting on the first day after the tumor implantation. Benfluron is administered only once, on the fourth day after the tumor implantation, 7 hours after the last dose of the substance Ia.
# Ehrlich Carcinoma cells = test: Cytotoxicity in vitro: 14C precursor incorporation in Ehrlich Carcinoma cells (Example 10); type: cell-based; details: for IC50: Ehrlich, read-out: ID50 (14C incorporation)
# Source text: as §1
# The degree of influence on the incorporation of ^14 C from adenine-^14 C and valine-^14 C to the fraction of Ehrlich Carcinoma cells insoluble in trichloroacetic acid serves as the measure of cytotoxicity. The value ID50 is the concentration of a cytostatic that reduces the ^14 C incorporation down to 50% of the non-influencedcontrol cells.
# [5] = tested on: Yoshida ascitic tumor cells; test: Cytotoxicity in vitro: initial velocity of 3H/14C precursor incorporation in Yoshida ascitic tumor cells (Example 11); type: cell-based; details: for IC50: Rattus norvegicus, YOSHIDA
# Source text: as §1
# (§4) In analogous experiments, the degree of influence on the initial velocity of the incorporation of ^3 H from 5-iodo-2'-deoxy-(6-^3 H)uridine or that of ^14 C from a mixture of L-(U-^14 C)-aminoacids to the fraction of Yoshida ascitic tumor cells insoluble in trichloroacetic acid serves as the measure of cytotoxicity. The value IC50 is the concentration of a substance that reduces the initial velocity of the ^3 H or ^14 C incorporation down to 50% of the noninfluenced control cells.
# tumor cells = test: Comparison of cytotoxicity of Ia and Ib in vitro, precursor incorporation (Example 12); type: cell-based
# Source text: as §1, §4
# In analogous experiments, the following values of IC50 were determined: […]
compound,measurement,setting,value
"O=C(NCCCl)Sc1ncnc2nc[nH]c12 [Substance Ia, 6-[N-(2-Chloroethyl)carbamoyl]thiopurine]",Tumor weight (% of control),Ehrlich tumor (STE); p.o. 8 × 100 mg/kg,80 % of control
same,Tumor weight (% of control),Ehrlich tumor (STE); p.o. 8 × 200 mg/kg,70 % of control
same,Period of survival (% of control),Zajdel ascitic hepatoma [1]; p.o. 5 × 100 mg/kg,117 % of control
same,Period of survival (% of control),Zajdel ascitic hepatoma [1]; p.o. 5 × 200 mg/kg,126 % of control
same,Period of survival (% of control),Yoshida tumor [2]; p.o. 5 × 100 mg/kg (Example 6),134 % of control
same,Period of survival (% of control),Yoshida tumor [2]; p.o. 5 × 200 mg/kg (Example 6),127 % of control
same,Period of survival (% of control),Yoshida tumor [3]; p.o. 5 × 100 mg/kg (Example 7),124 % of control
same,Period of survival (% of control),Yoshida tumor [3]; p.o. 5 × 200 mg/kg (Example 7),158 % of control
same,Period of survival (% of control),Zajdel ascitic hepatoma [4]; p.o. 5 × 100 mg/kg (Example 8),120 % of control
same,Period of survival (% of control),Zajdel ascitic hepatoma [4]; p.o. 5 × 200 mg/kg (Example 8),128 % of control
same,antitumor effect / average period of survival vs non-treated control,Zajdel ascitic hepatoma [4]; in words (Example 8),statistically significantly higher average period of survival
same,Average period of survival (% of control),Yoshida ascitic sarcoma; Ia 4 × 50 mg/kg p.o.,125 % of control
same,Average period of survival (days),Yoshida ascitic sarcoma; Ia 4 × 50 mg/kg p.o.,9.20 (7.6; 11.1) days
same,Average period of survival (% of control),Yoshida ascitic sarcoma; Ia 4 × 100 mg/kg p.o.,149 % of control
same,Average period of survival (days),Yoshida ascitic sarcoma; Ia 4 × 100 mg/kg p.o.,10.94 (9.0; 13.3) days
same,Average period of survival (% of control),Yoshida ascitic sarcoma; Ia 4 × 200 mg/kg p.o.,121 % of control
same,Average period of survival (days),Yoshida ascitic sarcoma; Ia 4 × 200 mg/kg p.o.,8.86 (7.4; 10.7) days
same,survival vs control group,"Yoshida ascitic sarcoma; Yoshida ascitic sarcoma, in words, over 29 days",survive longer
same,effectiveness vs thioguanine and/or 6-mercaptopurine,"Ehrlich Carcinoma cells; Ehrlich ascites carcinoma cells, in words",more effective
same,IC50,Ehrlich Carcinoma cells; precursor adenine-14C,94 µM
same,IC50,Ehrlich Carcinoma cells; precursor valine-14C,155 µM
same,IC50,"[5]; precursor 5-iodo-2'-deoxy(6-3H)uridine, read-out: IC50 (initial velocity of 3H incorporation)",25 µM
same,IC50,"[5]; precursor L-(U-14C)aminoacids, read-out: IC50 (initial velocity of 14C incorporation)",26 µM
same,effectiveness vs thioguanine and/or 6-mercaptopurine,"[5]; Yoshida ascites tumor cells, in words",more effective
same,IC50,tumor cells; precursor 5-iodo-2'-deoxy(6-3H)uridine (Example 12),39 µM
same,IC50,tumor cells; precursor L-(U-14C)aminoacids (Example 12),62 µM
